Experimental data reported in patent publication US11407736B2 (priority 2019, dated 2022).
Read-outs that look alike come from different tables or passages of the source.

How the values were obtained:
RIPK1 = RIPK1 (Homo sapiens (Human), UniProt Q13546); test: RIPK1 ADP-Glo biochemical kinase assay
Description: The final reaction volume was 5.0ul.
Adding 5 μl of ADP-Glo™ terminated the reaction.

L929 cells = test: L929 cell necroptosis assay (TNFa + zVAD, CellTiter-Glo); format: cell-based, murine; settings: Mus musculus
How it was run: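 Necroptosis was read as CellTiter-Glo luminescence 18 hours after TNFa stimulation at 37° C, 5% CO2. Prior to that, L929 cells (10K/well, plated 18 h) received fresh medium with 40 uM zVAD-fmk plus 4-fold serially diluted compound.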

U937 cells = test: U937 cell necroptosis assay (TNFa + zVAD, CellTiter-Glo); format: cell-based, human; settings: Homo sapiens
How it was run: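 Necroptosis was induced with TNFa at 2 ng/mL final for 18 h at 37 °C, following 1 h compound pre-incubation in the presence of zVAD-fmk (60 uM for U937 plating medium, 40 uM for L929 medium). Luminescent CellTiter-Glo signal gave relative cell survival.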

[1] = read-out: RIPK1 ADP-Glo Kinase (IC50)
[2] = L929, L929 cells, TNFa + zVAD, read-out: L929-CTG-recovery, L929, TNFa + zVAD (IC50)
[3] = U-937, U937 cells, TNFa + zVAD, read-out: U937 Zvad TNF CTG Recovery, U937, TNFa + zVAD (IC50)
[4] = L929, read-out: L929-CTG-recovery, L929, TNFa + zVAD (IC50), L929 cells, TNFa + zVAD
[5] = U-937, read-out: U937 Zvad TNF CTG Recovery, U937, TNFa + zVAD (IC50), U937 cells, TNFa + zVAD

Chain of RIPK1 (Q13546 whole entry, species assumed): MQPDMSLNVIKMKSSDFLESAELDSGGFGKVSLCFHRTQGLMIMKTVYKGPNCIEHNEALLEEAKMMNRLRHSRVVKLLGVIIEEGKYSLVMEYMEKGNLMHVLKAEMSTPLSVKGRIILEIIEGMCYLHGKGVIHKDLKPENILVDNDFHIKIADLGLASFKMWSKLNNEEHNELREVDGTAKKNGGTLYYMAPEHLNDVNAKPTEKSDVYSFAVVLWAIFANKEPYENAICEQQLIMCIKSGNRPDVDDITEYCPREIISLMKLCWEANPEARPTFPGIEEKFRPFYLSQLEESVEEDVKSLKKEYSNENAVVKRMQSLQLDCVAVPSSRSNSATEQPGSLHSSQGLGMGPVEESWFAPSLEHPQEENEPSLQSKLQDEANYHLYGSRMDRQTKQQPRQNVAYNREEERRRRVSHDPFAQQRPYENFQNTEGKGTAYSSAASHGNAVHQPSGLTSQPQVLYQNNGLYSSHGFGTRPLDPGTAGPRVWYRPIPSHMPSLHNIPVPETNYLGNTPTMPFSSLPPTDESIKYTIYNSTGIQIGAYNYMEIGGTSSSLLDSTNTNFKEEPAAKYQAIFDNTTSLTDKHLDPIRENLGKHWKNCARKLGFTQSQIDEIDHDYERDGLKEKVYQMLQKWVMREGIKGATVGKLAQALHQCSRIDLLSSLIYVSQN

Compound	IC50 (RIPK1; [1]) [µM]	IC50 (L929 cells; [2]) [µM]	IC50 (U937 cells; [3]) [µM]	IC50 (L929 cells; [4]) [µM]	IC50 (U937 cells; [5]) [µM]	IC50 (RIPK1) [µM]	IC50 (L929 cells; L929 cells, TNFa + zVAD, read-out: L929-CTG-recovery, L929, TNFa + zVAD (IC50)) [µM]
CN1C(=O)[C@@H](NC(=O)n2cc(Cc3ccccc3)cn2)COc2ccc(C#CC(C)(C)O)cc21 [Compound I-213, (S)-4-Benzyl-N-(7-(3-hydroxy-3-methylbut-1-yn-1-yl)-5-methyl-4-oxo-2,3,4,5-tetrahydrobenzo[b][1,4]oxazepin-3-yl)-1H-pyrazole-1-carboxamide]	0.0352	0.0455	0.001				
CN1C(=O)[C@@H](NC(=O)n2cc(Cc3ccccc3)cn2)COc2ccc(C#Cc3cccnc3)cc21 [Compound I-214, (S)-4-Benzyl-N-(5-methyl-4-oxo-7-(pyridin-3-ylethynyl)-2,3,4,5-tetrahydrobenzo[b][1,4]oxazepin-3-yl)-1H-pyrazole-1-carboxamide]	0.0762	0.352	0.004				
CN1C(=O)[C@@H](NC(=O)n2cc(Cc3ccccc3)cn2)COc2ccc(C#Cc3ccccn3)cc21 [Compound I-215, (S)-4-Benzyl-N-(5-methyl-4-oxo-7-(pyridin-2-ylethynyl)-2,3,4,5-tetrahydrobenzo[b][1,4]oxazepin-3-yl)-1H-pyrazole-1-carboxamide]	0.0321	0.0209	0.0003				
CN1C(=O)[C@@H](NC(=O)n2cc(Cc3ccccc3)cn2)COc2ccc(C#CC3(O)COC3)cc21 [Compound I-216, (S)-4-Benzyl-N-(7-((3-hydroxyoxetan-3-yl)ethynyl)-5-methyl-4-oxo-2,3,4,5-tetrahydrobenzo[b][1,4]oxazepin-3-yl)-1H-pyrazole-1-carboxamide]	0.0188			0.0285	0.0005		
CN1C(=O)[C@@H](NC(=O)n2cc(Cc3ccccc3)cn2)COc2ccc(N3CC4(CCOCC4)C3)cc21 [Compound I-217, (S)-4-Benzyl-N-(5-methyl-4-oxo-7-(7-oxa-2-azaspiro[3.5]nonan-2-yl)-2,3,4,5-tetrahydrobenzo[b][1,4]oxazepin-3-yl)-1H-pyrazole-1-carboxamide]		0.597	0.0005			0.0239	
CN1C(=O)[C@@H](NC(=O)n2cc(Cc3ccc(F)cc3)cn2)COc2ccc(C#CC(C)(C)O)cc21 [Compound I-218, (S)-4-(4-fluorobenzyl)-N-(7-(3-hydroxy-3-methylbut-1-yn-1-yl)-5-methyl-4-oxo-2,3,4,5-tetrahydrobenzo[b][1,4]oxazepin-3-yl)-1H-pyrazole-1-carboxamide]	0.0245	0.0758	0.0026				
CN1C(=O)[C@@H](NC(=O)n2cc(Cc3ccccc3)cn2)COc2ccc(C#CC3(O)CCC3)cc21 [Compound I-219, (S)-4-Benzyl-N-(7-((1-hydroxycyclobutyl)ethynyl)-5-methyl-4-oxo-2,3,4,5-tetrahydrobenzo[b][1,4]oxazepin-3-yl)-1H-pyrazole-1-carboxamide]	0.0284	0.0236	0.0006				
Cc1c(Cc2ccccc2)cnn1C(=O)N[C@H]1COc2ccc(C#CC(C)(C)O)cc2N(C)C1=O [Compound I-220, (S)-4-Benzyl-N-(7-(3-hydroxy-3-methylbut-1-yn-1-yl)-5-methyl-4-oxo-2,3,4,5-tetrahydrobenzo[b][1,4]oxazepin-3-yl)-5-methyl-1H-pyrazole-1-carboxamide]	0.0355	1.92	0.0089				
CN1C(=O)[C@@H](NC(=O)c2nnc(C3(c4ccccc4)CC3)o2)COc2ccc(N3CC4(CCOCC4)C3)cc21 [Compound I-235, (S)—N-(5-methyl-4-oxo-7-(7-oxa-2-azaspiro[3.5]nonan-2-yl)-2,3,4,5-tetrahydrobenzo[b][1,4]oxazepin-3-yl)-5-(1-phenylcyclopropyl)-1,3,4-oxadiazole-2-carboxamide]	0.0621		0.0132				1.07
CN1C(=O)[C@@H](NC(=O)c2nnc(Cc3ccccc3)o2)COc2ccc(N3CC4(CCOCC4)C3)cc21 [Compound I-236, (S)-5-benzyl-N-(5-methyl-4-oxo-7-(7-oxa-2-azaspiro[3.5]nonan-2-yl)-2,3,4,5-tetrahydrobenzo[b][1,4]oxazepin-3-yl)-1,3,4-oxadiazole-2-carboxamide]	0.0559			0.258	0.0066		
CN1C(=O)[C@@H](NC(=O)n2cc(Cc3ccc(F)cc3F)cn2)COc2ccc(Br)cc21 [Compound I-237, (S)—N-(7-Bromo-5-methyl-4-oxo-2,3,4,5-tetrahydrobenzo[b][1,4]oxazepin-3-yl)-4-(2,4-difluorobenzyl)-1H-pyrazole-1-carboxamide]		15.5	0.135			0.0431	

Continued, in another order:

IC50 (RIPK1; [1]) [µM]	Compound	IC50 (L929 cells; [2]) [µM]	IC50 (U937 cells; [3]) [µM]	IC50 (L929 cells; [4]) [µM]	IC50 (U937 cells; [5]) [µM]	IC50 (RIPK1) [µM]	IC50 (L929 cells; L929 cells, TNFa + zVAD, read-out: L929-CTG-recovery, L929, TNFa + zVAD (IC50)) [µM]
0.0397	CN1C(=O)[C@@H](NC(=O)n2cc(Cc3ccc(F)cc3)cn2)COc2ccc(C#CC3(O)CCC3)cc21 [Compound I-221, (S)-4-(4-Fluorobenzyl)-N-(7-((l-hydroxycyclobutyl)ethynyl)-5-methyl-4-oxo-2,3,4,5-tetrahydrobenzo[b][1,4]oxazepin-3-yl)-1H-pyrazole-1-carboxamide]	0.0722	0.0025				
0.0166	CN1C(=O)[C@@H](NC(=O)n2cc(Cc3ccc(F)cc3)cn2)COc2ccc(C#CC3(O)COC3)cc21 [Compound I-222, (S)-4-(4-Fluorobenzyl)-N-(7-((3-hydroxyoxetan-3-yl)ethynyl)-5-methyl-4-oxo-2,3,4,5-tetrahydrobenzo[b][1,4]oxazepin-3-yl)-1H-pyrazole-1-carboxamide]	0.0625	0.0014				
0.141	CN1C(=O)[C@@H](NC(=O)n2ccc(Cc3ccc(F)cc3)n2)COc2ccc(C#CC3(O)CCC3)cc21 [Compound I-223, (S)-3-(4-Fluorobenzyl)-N-(7-((1-hydroxycyclobutyl)ethynyl)-5-methyl-4-oxo-2,3,4,5-tetrahydrobenzo[b][1,4]oxazepin-3-yl)-1H-pyrazole-1-carboxamide]	10.3	0.627				
0.312	CN1C(=O)[C@@H](NC(=O)n2cc(Cc3ccc(F)cc3)cn2)COc2ccc(C#CC3(O)CC4(CCC4)C3)cc21 [Compound I-224, (S)-4-(4-Fluorobenzyl)-N-(7-((2-hydroxyspiro[3.3]heptan-2-yl)ethynyl)-5-methyl-4-oxo-2,3,4,5-tetrahydrobenzo[b][1,4]oxazepin-3-yl)-1H-pyrazole-1-carboxamide]	0.22	0.0015				
0.0227	CN1C(=O)[C@@H](NC(=O)n2cc(Cc3ccc(F)cc3)cn2)COc2ccc(C#CC3(O)CC4(COC4)C3)cc21 [Compound I-225, (S)-4-(4-Fluorobenzyl)-N-(7-((6-hydroxy-2-oxaspiro[3.3]heptan-6-yl)ethynyl)-5-methyl-4-oxo-2,3,4,5-tetrahydrobenzo[b][1,4]oxazepin-3-yl)-1H-pyrazole-1-carboxamide]	0.0325	0.0005				
0.033	CN1C(=O)[C@@H](NC(=O)n2cc(Cc3ccc(F)cc3)cn2)COc2ccc(C#CC(C)(C)N)cc21 [Compound I-226, (S)—N-(7-(3-amino-3-methylbut-1-yn-1-yl)-5-methyl-4-oxo-2,3,4,5-tetrahydrobenzo[b][1,4]oxazepin-3-yl)-4-(4-fluorobenzyl)-1H-pyrazole-1-carboxamide]	1.77	0.017				
